{"source": "patent US11642341B2", "about": "“Combination of brexpiprazole and nalmefene and use thereof for treating substance-related disorders” (OTSUKA PHARMACEUTICAL CO., LTD., priority 2014, dated 2023)", "key": {"rat": {"test_system": "rat", "assay": "Spontaneous locomotor activity under novel environments", "type": "in vivo", "conditions": "data not shown"}, "Wistar rats [1]": {"test_system": "Wistar rats", "assay": "Measurement of alcohol intake by limited access paradigm", "type": "in vivo", "conditions": "data not shown", "experimental": "Measurement method: An impulsive behavior of cravings for drinking alcohol was evaluated as follows by reference to the method of Sinclair et al. (Alcohol 1992; 9:441-44 and Alcohol & Alcoholism 2001; 36:2-10). First, Wistar rats (male) were allowed to freely drink 10% aqueous ethanol solution and tap water for several weeks under isolated rearing. After the ethanol intake of each animal became stable, limited access paradigm allowing ethanol intake only for 1 hr per day was started, and the ethanol intake in 1 hr was measured every day. The ethanol intake was calculated from the results of weight measurement of a water supply bottle filled with 10% aqueous ethanol solution immediately before the start of the limited access paradigm and immediately after the completion of the limited access paradigm. […] The limited access paradigm test was performed during 9:00 AM-4:00 PM. […]\nThe significance level of the test was set to 5%. […] The difference between an average ethanol intake in the limited access paradigm for 4 days immediately before drug evaluation and an average ethanol intake in the limited access paradigm for 4 days during the drug administration period was calculated for every animal, and analyzed by two-way factorial analysis of variance by using the presence or absence of brexpiprazole and the presence or absence of nalmefene as factors."}, "Wistar rats [2]": {"test_system": "Wistar rats", "conditions": "report Alcohol & Alcoholism 2001; 36: 2-10; present dose 0.04 mg/kg; cited from earlier work"}, "[3]": {"conditions": "brexpiprazole alone 0.01 mg/kg orally"}, "[4]": {"conditions": "nalmefene hydrochloride monohydrate alone 0.04 mg/kg subcutaneously"}}, "note": "Structures can show the parent of a compound that is named as a salt.", "data": [{"molecule": "O=c1ccc2ccc(OCCCCN3CCN(c4cccc5sccc45)CC3)cc2[nH]1", "note": "[brexpiprazole, 7-[4-(4-benzo[b]thiophen-4-yl-piperazin-1-yl)butoxy]-1H-quinolin-2-one]", "values": [{"measurement": "influence on spontaneous locomotor activity under novel environments, drug by itself", "setting": "rat; [3]", "value": "does not, by itself, influence"}, {"measurement": "influence on ethanol intake, drug by itself", "setting": "Wistar rats [1]; [3]", "value": "does not, by itself, influence"}]}, {"molecule": "C=C1CC[C@@]2(O)[C@H]3Cc4ccc(O)c5c4[C@@]2(CCN3CC2CC2)[C@H]1O5", "note": "[nalmefene hydrochloride monohydrate]", "values": [{"measurement": "influence on spontaneous locomotor activity under novel environments, drug by itself", "setting": "rat; [4]", "value": "does not, by itself, influence"}, {"measurement": "influence on ethanol intake, drug by itself", "setting": "Wistar rats [1]; [4]", "value": "does not, by itself, influence"}]}, {"molecule": "C=C1CC[C@@]2(O)[C@H]3Cc4ccc(O)c5c4[C@@]2(CCN3CC2CC2)[C@H]1O5", "note": "[nalmefene, 17-(cyclopropylmethyl)-4,5α-epoxy-6-methylenemorphinan-3,14-diol]", "values": [{"measurement": "dose at which nalmefene used singly shows effects in this evaluation system, relative to the dose used in the present test", "setting": "Wistar rats [2]", "value": "about 10 times"}]}]}
